For one experiment, the system named is NCI-H1373 cells. In words: NCI-H1373 xenograft model. The experiment is classed as in vivo, female BALB/c mice. To be noted: QD; for TGI % / Tumor volume at the end (Day 22): Day 22. The method, then: 4. NCI-H1373 xenograft model
NCI-H1373 cells (5.0E+06 cells) were injected subcutaneously into the right flank of female BALB/c mice (6-8 weeks) in a mixture with Matrigel (BD Bioscience). Mice were monitored daily and caliper measurements began when tumors became visible. Tumor volume was calculated by measuring two perpendicular diameters using the following formula: (L*w^2)/2 in which L and w refer to the length and width tumor diameter, respectively. When the average tumor volume reached 150-200 mm^3, mice were grouped (n=6/group) and treated with compounds. Tumor volume and mice weight was measured twice a week during treatment (˜3 weeks). Tumor growth inhibition rates were calculated by TGI %=(1−(Vt−Vt0)/(Vc−Vc0))*100%, where Vc, Vt are the mean tumor volume of control and treated groups at the end of the study, and Vc0 and Vt0 are the mean tumor volume of control and treated groups at the start.

Another experiment has as its target T1, KRAS G12C (Homo sapiens, UniProt P01116, G12C).
T1 construct: HIS-KRAS (G12C, aa 2-185, Sino biological); purchased Sino biological
In words: SOS1 catalyzed nucleotide exchange assay (TR-FRET). It is filed as biochemical. To be noted: GDP-loaded HIS-KRAS(G12C), 1 hour pre-incubation with compound. The method, boiled down: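 EDTA-stripped, GDP-loaded His-KRAS G12C (aa 2-185; 3 nM final) preincubated 1 h with compound, then SOS1 ExD (aa 564-1049; 2 μM) and BODIPY-FL GTP (80 nM) added for 4 h at 25 °C. TR-FRET via anti-His Tb cryptate (515/486 nm ratio); IC50 from 4-parameter logistic fit.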

The subject of experiment [1] is Phospho-ERK1/2(THR202/TYR204) in NCI-H358 cells express KRAS G12C. In words: Phospho-ERK1/2(THR202/TYR204) HTRF assay. To be noted: Homo sapiens; NCI-H358, 2 hours incubation; read-out: p-ERK inhibition in NCI-H358 IC50. It is filed as cell-based. The method, boiled down: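 Compounds applied to attached cells for 2 h at 37 °C in RPMI 1640 with 0.1% FBS. Lysate phospho-ERK1/2 detected by HTRF after 4 h antibody incubation at 25 °C; IC50 from 4-parameter logistic fit.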
On the technique in general: Time-resolved FRET reads energy transfer from a long-lived donor to a nearby acceptor.

Experiment [2] has as its system NCI-H358 cells express KRAS G12C. As to the kind of experiment: Cell growth inhibition assay (CCK-8). The experiment is classed as cell-based. To be noted: Homo sapiens, 144 h; NCI-H358, 6 days incubation. Put shortly: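 Antiproliferative read-out: KRAS G12C-mutant NCI-H358 lung cancer cells (3000/well) exposed to compounds in RPMI 1640 with 10% FBS for 6 days at 37°C. Viability by CCK-8 (OD450) after 1.5-2 h; IC50 from 4-parameter logistic fit.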

SMILES strings stand for the structures.

T1 sequence (P01116 2-185 isoform P01116-2 G12C): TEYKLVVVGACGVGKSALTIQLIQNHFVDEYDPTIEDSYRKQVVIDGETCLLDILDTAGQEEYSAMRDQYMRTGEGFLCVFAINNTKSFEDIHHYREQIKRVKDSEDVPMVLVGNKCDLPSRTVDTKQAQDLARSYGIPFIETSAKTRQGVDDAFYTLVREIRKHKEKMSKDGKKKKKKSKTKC

Turning to `C=C(F)C(=O)N1CCN(c2nc(OCC3CCCN3C)nc3c2CCN(c2cccc4cccc(Cl)c24)C3)C[C@@H]1CC#N` (some centres unmarked) [MRTX 849, MRTX849, reference compound], in the experiment on NCI-H1373 cells (Table 2, 10 mg/kg), the TGI % is given as 79.0% and the “Tumor volume at the end (Day 22)” value turned out to be 553 mm^3. For the same compound, in the experiment with NCI-H1373 cells (Table 3, 10 mg/kg), the TGI % amounted to 86.3% and the “Tumor volume at the end (Day 22)” value turned out to be 355 mm^3. The “Tumor volume at the start” value in the experiment on NCI-H1373 cells (Table 3, 10 mg/kg, at the start) was determined as 188 mm^3.
With `C=CC(=O)N1CCN(c2nc(OCC3(CN4CCN(C(C)=O)CC4)CC3)nc3c2CCN(c2cccc4cccc(C)c24)C3)CC1CC#N` (centres unmarked) [Compound 66, 2-(4-(2-((1-((4-acetylpiperazin-1-yl)methyl)cyclopropyl)methoxy)-7-(8-methylnaphthalen-1-yl)-5,6,7,8-tetrahydropyrido[3,4-d]pyrimidin-4-yl)-1-acryloylpiperazin-2-yl)acetonitrile], the IC50 at KRAS G12C came to 1.46 nM; in experiment [1], 13.6 nM; in experiment [2], 25.1 nM.
Turning to `C=CC(=O)N1CCN(c2nc(OCC3(CN(C)C)CC3)nc3c2CCN(c2cccc4ccccc24)C3)CC1CC#N` (centres unmarked) [Compound 37, 2-(1-acryloyl-4-(2-((1-((dimethylamino)methyl)cyclopropyl)methoxy)-7-(naphthalen-1-yl)-5,6,7,8-tetrahydropyrido[3,4-d]pyrimidin-4-yl)piperazin-2-yl)acetonitrile], the IC50 came to 6.75 nM on KRAS G12C, 81.6 nM in experiment [1] and 85.5 nM in experiment [2].
On the same counts, the results for `C=CC(=O)N1CCN(c2nc(OCC3(CN4CCC4)CC3)nc3c2CCN(c2cccc4ccccc24)C3)CC1CC#N` (centres unmarked) [Compound 41, 2-(1-acryloyl-4-(2-((1-(azetidin-1-ylmethyl)cyclopropyl)methoxy)-7-(naphthalen-1-yl)-5,6,7,8-tetrahydropyrido[3,4-d]pyrimidin-4-yl)piperazin-2-yl)acetonitrile] are 13.5 nM, 149 nM and 179 nM.
Regarding `Cc1cccc2cccc(N3CCc4c(nc(OCC5(CN(C)C)CC5)nc4N4CCN(C(=O)/C=C/CF)C(CC#N)C4)C3)c12` (centres unmarked) [Compound 77, (E)-2-(4-(2-((1-((dimethylamino)methyl)cyclopropyl)methoxy)-7-(8-methylnaphthalen-1-yl)-5,6,7,8-tetrahydropyrido[3,4-d]pyrimidin-4-yl)-1-(4-fluorobut-2-enoyl)piperazin-2-yl)acetonitrile], the IC50 was 1.24 nM on KRAS G12C, 59.3 nM in experiment [1] and 29 nM in experiment [2].
Consider `C=C(F)C(=O)N1CCN(c2nc(OCC3(CN4CCCC4)CC3)nc3c2CCN(c2cccc4cccc(C)c24)C3)CC1CC#N` (centres unmarked) [Compound 72, 2-(1-(2-fluoroacryloyl)-4-(7-(8-methylnaphthalen-1-yl)-2-((1-(pyrrolidin-1-ylmethyl)cyclopropyl)methoxy)-5,6,7,8-tetrahydropyrido[3,4-d]pyrimidin-4-yl)piperazin-2-yl)acetonitrile], for which the IC50 at KRAS G12C is 11.8 nM; in experiment [1], 215 nM; in experiment [2] it was 378 nM.
`C=CC(=O)N1CCN(c2nc(OCC3(CN(C)C)CC3)nc3c2CCN(c2cccc4ccsc24)C3)CC1CC#N` (centres unmarked) [Compound 50, 2-(1-acryloyl-4-(7-(benzo[b]thiophen-7-yl)-2-((1-((dimethylamino)methyl)cyclopropyl)methoxy)-5,6,7,8-tetrahydropyrido[3,4-d]pyrimidin-4-yl)piperazin-2-yl)acetonitrile]: the results for the IC50 (on KRAS G12C; in experiment [1]; in experiment [2]) were 8.66 nM, 83.8 nM and 202 nM, respectively.
The matching figures for `C=C(F)C(=O)N1CCN(c2nc(OCC3(CN4CC(N(C)C)C4)CC3)nc3c2CCN(c2cccc4cccc(C)c24)C3)CC1CC#N` (centres unmarked) [Compound 75, 2-(4-(2-((1-((3-(dimethylamino)azetidin-1-yl)methyl)cyclopropyl)methoxy)-7-(8-methylnaphthalen-1-yl)-5,6,7,8-tetrahydropyrido[3,4-d]pyrimidin-4-yl)-1-(2-fluoroacryloyl)piperazin-2-yl)acetonitrile]: 7.27 nM, 405 nM and 235 nM.
On to `C=CC(=O)N1CCN(c2nc(OCC3(CN4CCC4)CC3)nc3c2CCN(c2cccc4cccc(C)c24)C3)CC1CC#N` (centres unmarked) [Compound 43, 2-(1-acryloyl-4-(2-((1-(azetidin-1-ylmethyl)cyclopropyl)methoxy)-7-(8-methylnaphthalen-1-yl)-5,6,7,8-tetrahydropyrido[3,4-d]pyrimidin-4-yl)piperazin-2-yl)acetonitrile], for which the results for the IC50 (at KRAS G12C; in experiment [1]; in experiment [2]) were 5.04 nM, 71.8 nM and 135 nM, respectively.
Regarding `C=CC(=O)N1CCN(c2nc(OCC3(CN4CCCC4)CC3)nc3c2CCN(c2cccc(Cl)c2C(F)(F)F)C3)CC1CC#N` (centres unmarked) [Compound 38, 2-(1-acryloyl-4-(7-(3-chloro-2-(trifluoromethyl)phenyl)-2-((1-(pyrrolidin-1-ylmethyl)cyclopropyl)methoxy)-5,6,7,8-tetrahydropyrido[3,4-d]pyrimidin-4-yl)piperazin-2-yl)acetonitrile], the IC50 is 5.24 nM at KRAS G12C, 66 nM in experiment [1] and 60.2 nM in experiment [2].
As to `C=CC(=O)N1CCN(c2nc(OCC3CCCC3N(C)C)nc3c2CCN(c2ccccc2C(F)(F)F)C3)CC1CC#N` (centres unmarked) [Compound 27, 2-(1-acryloyl-4-(2-((2-(dimethylamino)cyclopentyl)methoxy)-7-(2-(trifluoromethyl)phenyl)-5,6,7,8-tetrahydropyrido[3,4-d]pyrimidin-4-yl)piperazin-2-yl)acetonitrile], the IC50 on KRAS G12C was 84.6 nM; in experiment [1], 566 nM; in experiment [2], 310 nM.
As for `C=CC(=O)N1CCN(c2nc(OC3CCCC(N(C)C)C3)nc3c2CCN(c2cccc4ccccc24)C3)CC1CC#N` (centres unmarked) [Compound 10, 2-(1-acryloyl-4-(2-((3-(dimethylamino)cyclohexyl)oxy)-7-(naphthalen-1-yl)-5,6,7,8-tetrahydropyrido[3,4-d]pyrimidin-4-yl)piperazin-2-yl)acetonitrile], the IC50 amounted to 1740 nM on KRAS G12C, 720 nM in experiment [1] and 940 nM in experiment [2].
Take `C=CC(=O)N1CCN(c2nc(OCC3(CN4CCC4)CC3)nc3c2CCN(c2cccc4cccc(Cl)c24)C3)CC1CC#N` (centres unmarked) [Compound 42, 2-(1-acryloyl-4-(2-((1-(azetidin-1-ylmethyl)cyclopropyl)methoxy)-7-(8-chloronaphthalen-1-yl)-5,6,7,8-tetrahydropyrido[3,4-d]pyrimidin-4-yl)piperazin-2-yl)acetonitrile]: the IC50 is 5.24 nM at KRAS G12C, 63.6 nM in experiment [1] and 118 nM in experiment [2].
Consider `C=CC(=O)N1CCN(c2nc(OCC3(CN(C)C)CC3)nc3c2CCN(c2c(C)ccc4[nH]ncc24)C3)CC1CC#N` (centres unmarked) [Compound 3, 2-(1-acryloyl-4-(2-((1-((dimethylamino)methyl)cyclopropyl)methoxy)-7-(5-methyl-1H-indazol-4-yl)-5,6,7,8-tetrahydropyrido[3,4-d]pyrimidin-4-yl)piperazin-2-yl)acetonitrile], for which the IC50 at KRAS G12C is 12.1 nM; in experiment [1] it was 453 nM; in experiment [2], 408 nM.
`C=CC(=O)N1CCN(c2nc(OCC3(CN4CCCC4)CC3)nc3c2CCN(c2cccc(Cl)c2Cl)C3)CC1CC#N` (centres unmarked) [Compound 35, 2-(1-acryloyl-4-(7-(2,3-dichlorophenyl)-2-((1-(pyrrolidin-1-ylmethyl)cyclopropyl)methoxy)-5,6,7,8-tetrahydropyrido[3,4-d]pyrimidin-4-yl)piperazin-2-yl)acetonitrile]: the results for the IC50 (on KRAS G12C; in experiment [1]; in experiment [2]) were 17.9 nM, 85.3 nM and 106 nM, respectively.
Turning to `C/C=C/C(=O)N1CCN(c2nc(OCC3(CN4CCCC4)CC3)nc3c2CCN(c2cccc4cccc(C)c24)C3)CC1CC#N` (centres unmarked) [Compound 74, (E)-2-(1-(but-2-enoyl)-4-(7-(8-methylnaphthalen-1-yl)-2-((1-(pyrrolidin-1-ylmethyl)cyclopropyl)methoxy)-5,6,7,8-tetrahydropyrido[3,4-d]pyrimidin-4-yl)piperazin-2-yl)acetonitrile], the IC50 was 66.8 nM at KRAS G12C, above 500 nM in experiment [1] and 1520 nM in experiment [2].

Usually IC50 stands for the midpoint of a concentration-inhibition curve.
